pIC50: −log10 of the molar value. Like-named read-outs stand apart in the source and are kept apart here.
Key:
PDGF-Ra = biological target: T1, PDGF-Ra (Homo sapiens, UniProt P16234); assay: Inhibitory activity against PDGF-Ra phosphorylation by PDGF-AA stimulation using G292; assay type: cell-based; settings: for pIC50: > means inhibition at indicated concentration not more than 50%, < and << not less than 50%, read-out: PDGF (E) IC50; for inhibition at 0.1 µM: G292, at 100 nM, read-out: PDGF (E) inhibition (%) at 100 nM
T1 construct: host or cells: G-292 human osteosarcoma cells
T1 sequence (P16234 24-1089): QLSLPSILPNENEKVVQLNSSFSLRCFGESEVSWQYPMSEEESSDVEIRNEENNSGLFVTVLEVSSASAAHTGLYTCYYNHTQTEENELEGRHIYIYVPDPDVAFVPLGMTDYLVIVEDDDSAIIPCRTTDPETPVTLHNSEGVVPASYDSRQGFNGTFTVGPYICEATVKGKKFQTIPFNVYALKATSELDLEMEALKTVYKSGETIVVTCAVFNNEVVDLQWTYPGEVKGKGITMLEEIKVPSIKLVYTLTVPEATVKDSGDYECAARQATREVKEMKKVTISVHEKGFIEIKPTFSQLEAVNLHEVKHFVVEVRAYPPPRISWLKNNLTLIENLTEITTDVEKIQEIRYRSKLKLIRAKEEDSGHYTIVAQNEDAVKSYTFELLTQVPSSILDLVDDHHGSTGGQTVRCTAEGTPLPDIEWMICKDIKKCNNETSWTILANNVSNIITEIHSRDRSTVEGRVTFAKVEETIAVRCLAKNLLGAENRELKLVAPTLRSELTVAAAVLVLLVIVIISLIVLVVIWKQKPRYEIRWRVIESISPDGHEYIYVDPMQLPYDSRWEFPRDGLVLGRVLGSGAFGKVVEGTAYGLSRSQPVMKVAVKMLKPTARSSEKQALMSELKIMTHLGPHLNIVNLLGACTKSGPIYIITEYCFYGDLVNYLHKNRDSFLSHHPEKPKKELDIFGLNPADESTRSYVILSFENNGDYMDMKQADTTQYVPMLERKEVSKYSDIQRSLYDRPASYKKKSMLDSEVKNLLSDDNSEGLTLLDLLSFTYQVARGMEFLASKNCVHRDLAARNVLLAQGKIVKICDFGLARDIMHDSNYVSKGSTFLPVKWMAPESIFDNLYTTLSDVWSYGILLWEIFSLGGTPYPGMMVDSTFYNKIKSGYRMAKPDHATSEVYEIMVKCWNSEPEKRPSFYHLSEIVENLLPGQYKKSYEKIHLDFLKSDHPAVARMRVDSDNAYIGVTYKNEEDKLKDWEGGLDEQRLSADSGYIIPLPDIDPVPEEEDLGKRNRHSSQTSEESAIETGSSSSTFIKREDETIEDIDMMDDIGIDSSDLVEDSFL
How it was run: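 In G-292 osteosarcoma cells kept overnight in 0.1% FBS, compound exposure (1 hr, 37 °C) preceded PDGF-AA stimulation at 50 ng/ml for 5 min; receptor phosphotyrosine was then detected by PY-20 capture ELISA.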

c-kit = biological target: T2, c-kit (Homo sapiens, UniProt P10721); assay: Inhibitory activity against c-kit autophosphorylation (MO7e cells, h-SCF); assay type: cell-based; settings: for inhibition at 1 µM: Mo7e; for pIC50: MO7e cells, read-out: c-kit IC50
T2 construct: MO7e (human megakaryocytic leukemia cell line) which had been arrested for 20 hr; endogenous in cells; host or cells: MO7e human megakaryocytic leukemia cell line
T2 sequence (P10721 26-976): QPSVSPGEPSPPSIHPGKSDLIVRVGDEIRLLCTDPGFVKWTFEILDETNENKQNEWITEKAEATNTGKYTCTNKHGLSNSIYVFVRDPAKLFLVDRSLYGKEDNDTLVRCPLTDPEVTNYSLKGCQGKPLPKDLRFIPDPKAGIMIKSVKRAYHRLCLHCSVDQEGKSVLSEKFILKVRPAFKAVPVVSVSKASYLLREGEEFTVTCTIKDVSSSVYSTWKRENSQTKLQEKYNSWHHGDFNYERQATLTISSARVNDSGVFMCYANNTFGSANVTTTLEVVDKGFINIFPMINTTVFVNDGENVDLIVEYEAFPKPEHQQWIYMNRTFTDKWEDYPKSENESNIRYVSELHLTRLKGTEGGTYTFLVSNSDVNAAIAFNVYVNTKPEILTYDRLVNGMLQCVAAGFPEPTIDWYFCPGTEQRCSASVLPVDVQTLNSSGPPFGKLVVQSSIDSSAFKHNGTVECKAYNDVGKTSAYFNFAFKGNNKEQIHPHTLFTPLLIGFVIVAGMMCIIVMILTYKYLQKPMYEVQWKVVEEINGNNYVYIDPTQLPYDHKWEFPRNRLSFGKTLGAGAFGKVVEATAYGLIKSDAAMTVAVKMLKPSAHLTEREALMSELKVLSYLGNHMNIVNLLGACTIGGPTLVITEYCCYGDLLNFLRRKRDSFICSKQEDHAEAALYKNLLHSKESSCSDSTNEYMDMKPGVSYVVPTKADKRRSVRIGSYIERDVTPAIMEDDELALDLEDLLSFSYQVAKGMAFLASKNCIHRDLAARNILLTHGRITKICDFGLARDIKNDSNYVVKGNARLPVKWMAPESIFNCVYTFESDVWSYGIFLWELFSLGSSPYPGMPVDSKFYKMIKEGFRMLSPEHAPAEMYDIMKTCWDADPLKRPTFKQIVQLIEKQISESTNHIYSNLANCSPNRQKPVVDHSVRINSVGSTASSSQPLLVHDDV
How it was run: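 Ligand-induced c-kit tyrosine phosphorylation is measured in MO7e cells that were quiesced 20 hr and preincubated with compound for 1 hr prior to a 5 min pulse of 50 ng/ml human SCF. Phospho-c-kit is detected by anti-phosphotyrosine capture ELISA, A450.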

[1] = figure within parentheses in −( ) or >1000( ), at 1000 nM
[2] = figure in parentheses in >100( )
[3] = figure in parentheses in −( ), at 1000 nM

| Compound | pIC50 (PDGF-Ra) | pIC50 (PDGF-Ra; Pharmacological Test Example 1) | pIC50 (c-kit; h-SCF 50 ng/ml) | also measured |
| --- | --- | --- | --- | --- |
| COc1ccc(OC)c(COC(=O)Nc2ccc(Oc3ccnc4cc(OC)c(OC)cc34)c(C)c2C)c1 [Example 68, 2,5-Dimethoxybenzyl N-{4-[(6,7-dimethoxy-4-quinolyl)oxy]-2,3-dimethylphenyl}carbamate] |  | 7.89 | 6.53 |  |
| COc1ccc(OCCCOC(=O)Nc2ccc(Oc3ccnc4cc(OC)c(OC)cc34)c(C)c2C)cc1 [Example 43, 3-(4-Methoxyphenoxy)propyl N-{4-[(6,7-dimethoxy-4-quinolyl)oxy]-2,3-dimethylphenyl}carbamate] |  | > 8.00 | 6.80 |  |
| COc1cc2nccc(Oc3ccc(NC(=O)OCC4CCCCCC4)c(C)c3C)c2cc1OC [Example 350, Cycloheptylmethyl N-{4-[(6,7-dimethoxy-4-quinolyl)oxy]-2,3-dimethylphenyl}carbamate] |  | > 8.00 | 6.62 |  |
| COc1cc2nccc(Oc3ccc(NC(=O)OCc4cccc(C)c4)c(C)c3C)c2cc1OC [Example 233, 3-Methylbenzyl N-{4-[(6,7-dimethoxy-4-quinolyl)oxy]-2,3-dimethylphenyl}carbamate] |  | 8.10 | 7.28 |  |
| COc1cc2nccc(Oc3ccc(NC(=O)OCc4ccccc4)cc3)c2cc1OC [Example 231, Benzyl N-{4-[(6,7-dimethoxy-4-quinolyl)oxy]phenyl}carbamate] |  | 9.00 | 7.07 |  |
| COc1cc2nccc(Oc3ccc(NC(=O)OCCCSc4ccc(C)cc4)c(C)c3C)c2cc1OC [Example 38] |  | > 8.00 | 7.48 |  |
| COc1cc2nccc(Oc3cc(C)c(NC(=O)NCCN4CCCC4)cc3C)c2cc1OC [Example 619, N-{4-[(6,7-Dimethoxy-4-quinolyl)oxy]-2,5-dimethylphenyl}-N′-(2-tetrahydro-1H-1-pyrrolylethyl)urea] | < 7.00 |  |  | inhibition at 0.1 µM (PDGF-Ra; figure within parentheses in >100( )): 49%; inhibition at 1 µM (c-kit; [1]): 44% |
| COc1cc2ncnc(Oc3ccc(NC(=O)OCCCOc4ccc(F)cc4)cc3)c2cc1OC [Example 155, 3-(4-Fluorophenoxy)propyl N-{4-[(6,7-dimethoxy-4-quinazolinyl)oxy]phenyl}carbamate] |  | 7.85 | 7.39 |  |
| COc1cc(Oc2ncnc3cc(OC)c(OC)cc23)ccc1NC(=O)NCCN1CCOCC1 [Example 631, N-{4-[(6,7-Dimethoxy-4-quinazolinyl)oxy]-2-methoxyphenyl}-N′-(2-morpholinoethyl)urea] | 7.41 |  |  | pIC50 (c-kit; 50 ng/ml h-SCF): 6.73 |
| COc1ccc(COC(=O)Nc2ccc(Oc3ccnc4cc(OC)c(OC)cc34)cc2)cc1OC [Example 62, 3,4-Dimethoxybenzyl N-{4-[(6,7-dimethoxy-4-quinolyl)oxy]phenyl}carbamate] |  | 7.89 | 7.15 |  |
| COc1cc2nccc(Oc3ccc(NC(=O)Oc4c(C)cccc4C)c(C)c3C)c2cc1OC [Example 271, 2,6-Dimethylphenyl N-(4-[(6,7-dimethoxy-4-quinolyl)oxy]-2,3-dimethylphenyl}carbamate] |  | 7.66 | 6.89 |  |
| COc1cc2ncnc(Oc3ccc(NC(=O)OC(C)c4cccc(F)c4)cc3)c2cc1OC (centres unmarked) [Example 100, 1-(3-Fluorophenyl)ethyl N-{4-[(6,7-dimethoxy-4-quinazolinyl)oxy]phenyl}carbamate] |  | 7.85 | 6.09 |  |
| COc1cc2nccc(Oc3ccc(NC(=O)OCC4CCCCC4)cc3)c2cc1OC [Example 283, Cyclohexylmethyl N-{4-[(6,7-dimethoxy-4-quinolyl)oxy]phenyl}carbamate] |  | > 8.00 | 6.92 |  |
| 1-(3-Chlorophenyl)ethyl N-{4-((6,7-dimethoxy-4-quinazolinyl)oxy)phenyl}carbamate [Example 3] |  | > 8.00 | 6.76 |  |
| COc1cc2ncnc(Oc3ccc(NC(=O)OC(C)c4cccc(Br)c4)c(Cl)c3)c2cc1OC (centres unmarked) [Example 121, 1-(3-Bromophenyl)ethyl N-{2-chloro-4-[(6,7-dimethoxy-4-quinazolinyl)oxy]phenyl}carbamate] |  | 7.32 |  | inhibition at 1 µM (c-kit; [3]): 17% |

Further lines, with some results ahead:

| pIC50 (PDGF-Ra) | pIC50 (PDGF-Ra; Pharmacological Test Example 1) | pIC50 (c-kit; h-SCF 50 ng/ml) | Compound | also measured |
| --- | --- | --- | --- | --- |
| 7.28 |  |  | COc1cc(Oc2ccnc3cc(OC)c(OC)cc23)ccc1NC(=O)NCCN(C(C)C)C(C)C [Example 672, N-[2-(Diisopropylamino)ethyl]-N′-{4-[(6,7-dimethoxy-4-quinolyl)oxy]-2-methoxyphenyl}urea] | inhibition at 1 µM (c-kit; [1]): 9% |
| 7.70 |  |  | COc1cc2nccc(Oc3ccc(NCCOc4ccc(C)cc4)cc3C)c2cc1OC [Example 879, N-{4-[(6,7-Dimethoxy-4-quinolyl)oxy]-3-methylphenyl}-N-[2-(4-methylphenoxy)ethyl]amine] | pIC50 (c-kit; h-SCF stimulation): 7.32 |
| 7.17 |  |  | COc1ccc(CCC(=O)NC(=S)Nc2ccc(Oc3ncnc4cc(OC)c(OC)cc34)cc2)cc1OC [Example 713, N-[3-(3,4-Dimethoxyphenyl)propanoyl]-N′-{4-[(6,7-dimethoxy-4-quinazolinyl)oxy]phenyl}thiourea] | pIC50 (c-kit; 50 ng/ml h-SCF): 7.05 |
| 7.72 |  |  | COc1cc2ncnc(Oc3ccc(NC(=S)NC(=O)Cc4cccc5ccccc45)cc3)c2cc1OC [Example 709, N-{4-[(6,7-Dimethoxy-4-quinazolinyl)oxy]phenyl}-N′-[2-(1-naphthyl)acetyl]thiourea] | inhibition at 1 µM (c-kit; [1]): 19% |
| > 8.00 |  |  | COc1cc2ncnc(Oc3ccc(NC(=S)NC(=O)Cc4ccccc4)cc3)c2cc1OC [Example 1148, N-{4-[(6,7-Dimethoxy-4-quinazolinyl)oxy]phenyl}-N′-(2-phenylacetyl)thiourea] | pIC50 (c-kit; h-SCF stimulation): 7.38 |
| < 7.00 |  |  | COc1cc2nccc(Oc3ccc(NC(=S)NC(=O)c4ccc(C)cc4)c(Cl)c3)c2cc1OC [Example 1102, N-{2-Chloro-4-[(6,7-dimethoxy-4-quinolyl)oxy]phenyl}-N′-(4-methylbenzoyl)thiourea] | inhibition at 0.1 µM (PDGF-Ra; [2]): 38%; inhibition at 1 µM (c-kit; [3]): 11% |
| 7.55 |  |  | COc1cc(Oc2ncnc3cc(OC)c(OC)cc23)ccc1NC(=O)NC1CCN(Cc2ccccc2)CC1 [Example 641, N-(1-Benzyl-4-piperidyl)-N′-{4-[(6,7-dimethoxy-4-quinazolinyl)oxy]-2-methoxyphenyl}urea] | pIC50 (c-kit; 50 ng/ml h-SCF): 6.53 |
| > 8.00 |  |  | CCN(CCNC(=O)Nc1ccc(Oc2ccnc3cc(OC)c(OC)cc23)c(C)c1C)c1cccc(C)c1 [Example 663, N-{4-[(6,7-Dimethoxy-4-quinolyl)oxy]-2,3-dimethylphenyl}-N′-[2-(ethyl-3-methylanilino)ethyl]urea] | pIC50 (c-kit; 50 ng/ml h-SCF): 6.69 |
| 7.72 |  |  | COc1cc2nccc(Oc3ccc(NC(=S)NC(=O)C4(C)CCCCC4)cc3Cl)c2cc1OC [Example 1192, N-{3-Chloro-4-[(6,7-dimethoxy-4-quinolyl)oxy]phenyl}-N′-[(1-methylcyclohexyl)carbonyl]thiourea] | pIC50 (c-kit; h-SCF stimulation): 6.17 |
| < 7.00 |  |  | COc1cc2nccc(Oc3ccc(NC(=S)NC(=O)Cc4ccccc4)c(C)c3C)c2cc1OC [Example 1105, N-{4-[(6,7-Dimethoxy-4-quinolyl)oxy]-2,3-dimethylphenyl}-N′-(2-phenylacetyl)thiourea] | inhibition at 0.1 µM (PDGF-Ra; [2]): 31%; c-kit inhibition (%) at 1000 nM (c-kit; figure in parentheses in −( ), at 1000 nM, 1 µM): −(1) % |

From patent US7135466B2 (Kirin Beer Kabushiki Kaisha, priority 1999, dated 2006)
